{
  "source": "paper PMC7688068",
  "about": "(Journal of medicinal chemistry, 2020)",
  "key": {"[1]": {"system": "Raw264.7 cells", "format": "in vitro ADME, mouse", "details": "for cellular permeability compared to positive control compound 9 of ref 55: 20 μM input, 2 h, 37 °C; for cellular uptake (cellular bioavailability): LC-MS-based method"}, "[2]": {"molecular_target": "T1, mPTPB (Mycobacterium tuberculosis, UniProt I6WXK4)", "T1 sequence (I6WXK4 whole entry, looked up)": "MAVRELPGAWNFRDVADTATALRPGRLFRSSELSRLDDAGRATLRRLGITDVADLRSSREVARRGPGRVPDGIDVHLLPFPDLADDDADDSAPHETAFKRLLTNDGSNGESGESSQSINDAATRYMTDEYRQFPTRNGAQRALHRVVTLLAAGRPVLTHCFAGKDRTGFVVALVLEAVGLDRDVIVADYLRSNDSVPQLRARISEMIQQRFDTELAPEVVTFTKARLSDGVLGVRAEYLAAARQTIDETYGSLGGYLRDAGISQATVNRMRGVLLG", "format": "biochemical"}, "[3]": {"system": "mouse embryonic fibroblasts (MEF cells)", "details": "72 h, up to 25 μM"}, "[4]": {"molecular_target": "T1, mPTPB", "format": "biochemical", "remark": "listed apart in the source"}, "[5]": {"system": "Raw 264.7 vector cells (pcN-HA)", "assay": "signaling in vector control cells, western blot, IFN-γ stimulated", "format": "cell-based, mouse", "details": "IFN-γ stimulation"}},
  "data": [
    {"smiles": "O=C(O)C(=O)Nc1ccc(C#Cc2ccc(C(F)(F)F)cc2)cc1", "note": "[Compound 4k, 2-Oxo-2-((4-((4-(trifluoromethyl)phenyl)ethynyl)phenyl)amino)acetic Acid]", "values": [
      {"measurement": "cellular permeability compared to positive control compound 9 of ref 55", "setting": "[1]", "value": "better cellular permeability"},
      {"measurement": "cellular uptake (cellular bioavailability)", "setting": "[1]", "value": "can easily be taken up"}
    ]},
    {"smiles": "O=C(O)C(=O)Nc1ccc(C#Cc2ccc(C(F)(F)F)cc2F)cc1", "note": "[Compound 4v, 2-((4-((2-Fluoro-4-(trifluoromethyl)phenyl)ethynyl)phenyl)amino)-2-oxoacetic Acid]", "values": [
      {"measurement": "cellular uptake (cellular bioavailability)", "setting": "[1]", "value": "can easily be taken up"}
    ]},
    {"smiles": "O=C(O)C(=O)Nc1ccc(/C=C\\c2ccc(C(F)(F)F)cc2)cc1", "note": "[Compound 10, (Z)-2-Oxo-2-((4-(4-(trifluoromethyl)styryl)phenyl)amino)acetic Acid]", "values": [
      {"measurement": "fold less potency compared to corresponding alkyne analogue", "setting": "[2]", "value": 45, "unit": "fold"}
    ]},
    {"smiles": "CC(C)(C)OC(=O)Nc1ccc(C#Cc2ccc(NC(=O)C(=O)O)cc2)cc1", "note": "[Compound 4s, 2-((4-((4-((tert-Butoxycarbonyl)amino)phenyl)ethynyl)phenyl)amino)-2-oxoacetic Acid]", "values": [
      {"measurement": "cellular permeability compared to positive control compound 9 of ref 55", "setting": "[1]", "value": "better cellular permeability"},
      {"measurement": "cytotoxicity (cell viability, MTT)", "setting": "[3]", "value": "did not exhibit any significant cytotoxicity"}
    ]},
    {"smiles": "O=C(O)C(=O)Nc1ccc(CCc2ccc(C(F)(F)F)cc2)cc1", "note": "[Compound 12, 2-Oxo-2-((4-(4-(trifluoromethyl)phenethyl)phenyl)amino)acetic Acid]", "values": [
      {"measurement": "fold less potency compared to corresponding alkyne analogue", "setting": "[2]", "value": 13, "unit": "fold"}
    ]},
    {"smiles": "O=C(O)C(=O)Nc1ccc(/C=C\\c2ccccc2)cc1", "note": "[Compound 9, (Z)-2-Oxo-2-((4-styrylphenyl)amino)acetic Acid]", "values": [
      {"measurement": "fold less potency compared to corresponding alkyne analogue", "setting": "[2]", "value": 3, "unit": "fold"}
    ]},
    {"smiles": "O=C(O)C(=O)Nc1ccc(CCc2ccccc2)cc1", "note": "[Compound 11, 2-Oxo-2-((4-phenethylphenyl)amino)acetic Acid]", "values": [
      {"measurement": "fold less potency compared to corresponding alkyne analogue", "setting": "[2]", "value": 5, "unit": "fold"}
    ]},
    {"smiles": "O=C(O)C(=O)Nc1ccc(C#Cc2ccc(C(F)(F)F)cc2Cl)cc1", "note": "[Compound 4t, 2-((4-((2-Chloro-4-(trifluoromethyl)phenyl)ethynyl)phenyl)amino)-2-oxoacetic Acid]", "values": [
      {"measurement": "mode of mPTPB inhibition", "setting": "[4]", "value": "reversible and competitive inhibitor"},
      {"measurement": "cellular permeability compared to positive control compound 9 of ref 55", "setting": "[1]", "value": "better cellular permeability"},
      {"measurement": "cellular uptake (cellular bioavailability)", "setting": "[1]", "value": "can easily be taken up"},
      {"measurement": "pAKT, pERK1/2 and pp38 levels compared to vehicle-treated cells", "setting": "[5]", "value": "no significant change"},
      {"measurement": "cytotoxicity (cell viability, MTT)", "setting": "[3]", "value": "did not exhibit any significant cytotoxicity"}
    ]},
    {"smiles": "O=C(O)C(=O)Nc1ccc(C#Cc2ccc(C(F)(F)F)cc2Br)cc1", "note": "[Compound 4u, 2-((4-((2-Bromo-4-(trifluoromethyl)phenyl)ethynyl)phenyl)amino)-2-oxoacetic Acid]", "values": [
      {"measurement": "cellular permeability compared to positive control compound 9 of ref 55", "setting": "[1]", "value": "better cellular permeability"},
      {"measurement": "cellular uptake (cellular bioavailability)", "setting": "[1]", "value": "can easily be taken up"}
    ]}
  ]
}
